{"source": "ChEMBL document CHEMBL1201862", "about": "“PubChem BioAssay data set” (2004)", "key": {"[1]": {"assay": "antiviral protection against BTV-induced cell death – arbovirus, BSR cells, confirmation (AID 1250);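 note: protection from viral cytopathic effect measured as cell viability by ATP luminescence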", "type": "functional"}, "HeLa": {"tested_on": "HeLa", "assay": "Cytotoxicity counterscreen assay for transcriptional activators of heat shock protein 70 (Hsp70). [Related pubchem assays: 1203, 1252 ]", "type": "functional", "settings": "Homo sapiens"}, "[2]": {"molecular_target": "T1, Microphthalmia-associated transcription factor (Homo sapiens, UniProt O75030)", "T1 sequence (O75030 whole entry)": "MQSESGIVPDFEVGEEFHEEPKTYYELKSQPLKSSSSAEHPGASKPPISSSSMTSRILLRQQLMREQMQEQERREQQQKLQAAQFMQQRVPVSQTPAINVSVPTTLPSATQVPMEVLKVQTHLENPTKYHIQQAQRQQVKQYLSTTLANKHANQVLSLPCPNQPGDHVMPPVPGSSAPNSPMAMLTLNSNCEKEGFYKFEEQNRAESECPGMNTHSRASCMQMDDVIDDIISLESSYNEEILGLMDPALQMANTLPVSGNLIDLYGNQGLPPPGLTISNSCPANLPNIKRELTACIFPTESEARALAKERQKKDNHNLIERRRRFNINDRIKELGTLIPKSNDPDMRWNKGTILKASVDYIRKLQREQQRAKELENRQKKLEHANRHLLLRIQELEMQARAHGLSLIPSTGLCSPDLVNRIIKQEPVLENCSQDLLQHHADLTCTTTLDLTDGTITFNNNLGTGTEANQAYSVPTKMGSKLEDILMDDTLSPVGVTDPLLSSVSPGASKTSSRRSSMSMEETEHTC", "assay": "reducers of TRPM1 reporter luminescence, concentration series – cell-based, SK-MEL-5, cherry-picked, set 3, MITF inhibitor project, dose response (AID 493073)", "type": "functional"}, "[3]": {"assay": "MIN6 cell viability loss – mouse insulinoma, cytotoxicity control, dose response (AID 2122);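 note: confirmatory high-throughput counterscreen run to flag cytotoxic compounds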", "type": "functional"}, "Vero [4]": {"tested_on": "Vero", "assay": "cells", "type": "functional", "settings": "Chlorocebus sabaeus"}, "[5]": {"assay": "viability loss in HEK293 cells – cell-based, plate reader, cherry-picked samples, cytotoxicity control, dose response (AID 743446)", "type": "functional"}, "[6]": {"assay": "Trypanosoma cruzi growth suppression in host cells – NIH3T3 host cells, beta-gal luminescence, confirmation (AID 2044);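 note: intracellular parasites grown in NIH/3T3 mouse fibroblasts as host cells; luminescent beta-galactosidase reporter signal from transgenic T. cruzi replicating inside host cells; inhibitors lower the luminescence signal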", "type": "functional, cell-based"}, "[7]": {"assay": "NIH3T3 cell viability loss – ATP luminescence, mouse fibroblasts, counter-screen, dose response (AID 2010);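 note: cells exposed to compound for about 90 hours before reading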", "type": "functional, cell-based"}, "Vero [8]": {"tested_on": "Vero", "assay": "cells", "type": "functional, cell-based", "settings": "Chlorocebus sabaeus"}, "[9]": {"assay": "toxicity toward HepG2 liver cells – cell-based, plate reader, cherry-pick, antagonist series, cytotoxicity control, dose response (AID 743416)", "type": "functional"}, "[10]": {"assay": "blockers of bursicon-stimulated LGR2 cAMP reporter – cell-based, HEK293, CRE-luciferase reporter, cherry pick, set 2, dose response (AID 743343);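 note: transfected cells were stimulated with diluted bursicon conditioned medium after compound addition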", "type": "functional"}, "[11]": {"molecular_target": "T2, Sphingosine 1-phosphate receptor 4 (Homo sapiens, UniProt O95977)", "T2 sequence (O95977 whole entry)": "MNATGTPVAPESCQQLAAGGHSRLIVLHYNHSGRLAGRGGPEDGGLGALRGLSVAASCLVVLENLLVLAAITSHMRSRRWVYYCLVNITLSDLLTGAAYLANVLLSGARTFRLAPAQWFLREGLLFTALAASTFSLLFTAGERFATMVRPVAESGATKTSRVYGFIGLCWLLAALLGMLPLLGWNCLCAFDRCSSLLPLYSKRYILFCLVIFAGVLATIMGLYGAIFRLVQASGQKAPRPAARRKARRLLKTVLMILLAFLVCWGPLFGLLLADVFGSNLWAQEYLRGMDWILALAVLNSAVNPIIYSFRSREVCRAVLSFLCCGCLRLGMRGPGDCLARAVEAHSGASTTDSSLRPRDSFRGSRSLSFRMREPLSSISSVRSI", "assay": "Fluorescence dose response cell-based high throughput screening assay for antagonists of the Sphingosine 1-Phosphate Receptor 4 (S1P4). [Related pubchem assays: 1524 (Confirmation in triplicates.), 1510 (Primary screen.)]", "type": "functional"}, "[12]": {"assay": "blockade of melanocortin 4 receptor signaling – cell-based, plate reader, cherry pick, counter-screen for LGR2 antagonist project, dose response (AID 743444);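 note: transfected HEK 293 cells stimulated with alpha-MSH peptide; potency of inhibitors of the alpha-MSH evoked signal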", "type": "functional"}, "[13]": {"molecular_target": "Sphingosine 1-phosphate receptor 1 (Homo sapiens, UniProt P21453)", "sequence (P21453 whole entry)": "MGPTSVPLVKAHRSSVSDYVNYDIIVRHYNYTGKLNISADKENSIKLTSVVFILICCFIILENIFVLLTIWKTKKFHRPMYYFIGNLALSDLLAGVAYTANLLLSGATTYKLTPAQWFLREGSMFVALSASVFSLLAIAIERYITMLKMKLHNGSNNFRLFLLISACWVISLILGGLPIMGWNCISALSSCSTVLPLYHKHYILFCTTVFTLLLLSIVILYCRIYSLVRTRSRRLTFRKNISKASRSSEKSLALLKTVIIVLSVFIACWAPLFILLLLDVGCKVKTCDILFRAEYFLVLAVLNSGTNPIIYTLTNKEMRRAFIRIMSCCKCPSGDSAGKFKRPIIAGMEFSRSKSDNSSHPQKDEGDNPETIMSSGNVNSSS", "type": "functional"}, "[14]": {"assay": "A549 cell cytotoxicity, dose response, cytotoxicity control, plate reader, cherry-pick, antagonist series (AID 743412)", "type": "functional, cell-based"}, "[15]": {"assay": "decrease of insulin promoter-GFP reporter – imaging, high-content screening, mouse beta cells (AID 1628)", "type": "functional", "settings": "MIN6"}, "[16]": {"molecular_target": "Mothers against decapentaplegic homolog 3 (Homo sapiens, UniProt P84022)", "sequence (P84022 whole entry)": "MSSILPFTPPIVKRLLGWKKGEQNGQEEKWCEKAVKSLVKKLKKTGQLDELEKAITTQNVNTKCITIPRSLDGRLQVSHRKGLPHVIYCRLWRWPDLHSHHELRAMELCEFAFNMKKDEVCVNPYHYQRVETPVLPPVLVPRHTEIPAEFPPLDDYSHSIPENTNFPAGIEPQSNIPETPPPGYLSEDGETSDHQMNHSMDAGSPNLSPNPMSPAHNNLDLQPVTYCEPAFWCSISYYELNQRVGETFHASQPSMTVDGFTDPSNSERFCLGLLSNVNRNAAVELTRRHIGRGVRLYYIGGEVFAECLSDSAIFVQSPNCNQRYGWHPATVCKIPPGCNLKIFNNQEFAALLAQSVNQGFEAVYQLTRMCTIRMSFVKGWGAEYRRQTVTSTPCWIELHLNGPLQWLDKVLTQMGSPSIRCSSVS", "assay": "inhibitors of SMAD-driven TGF-beta signaling – dose response (AID 715)", "type": "functional"}, "[17]": {"molecular_target": "Sphingosine 1-phosphate receptor 2 (Homo sapiens, UniProt O95136)", "sequence (O95136 whole entry)": "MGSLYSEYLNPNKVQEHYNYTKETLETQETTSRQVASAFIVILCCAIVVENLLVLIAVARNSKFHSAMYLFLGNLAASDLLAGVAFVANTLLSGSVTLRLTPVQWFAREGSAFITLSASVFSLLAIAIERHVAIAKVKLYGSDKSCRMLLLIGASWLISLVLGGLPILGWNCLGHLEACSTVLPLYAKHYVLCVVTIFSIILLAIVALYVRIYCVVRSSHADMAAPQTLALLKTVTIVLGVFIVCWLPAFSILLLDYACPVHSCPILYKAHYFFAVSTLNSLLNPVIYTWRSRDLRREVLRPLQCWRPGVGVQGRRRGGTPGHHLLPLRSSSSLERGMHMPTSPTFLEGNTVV", "assay": "Dose Response Cell Based Assay for Agonists of the S1P2 Receptor of Purchased Analogues. [Related pubchem assays: 729, 843, 854, 736 ]", "type": "functional"}, "[18]": {"molecular_target": "Lytic switch protein BZLF1 (Epstein-Barr virus (strain B95-8) (HHV-4) (Human herpesvirus 4), UniProt P03206)", "sequence (P03206 whole entry)": "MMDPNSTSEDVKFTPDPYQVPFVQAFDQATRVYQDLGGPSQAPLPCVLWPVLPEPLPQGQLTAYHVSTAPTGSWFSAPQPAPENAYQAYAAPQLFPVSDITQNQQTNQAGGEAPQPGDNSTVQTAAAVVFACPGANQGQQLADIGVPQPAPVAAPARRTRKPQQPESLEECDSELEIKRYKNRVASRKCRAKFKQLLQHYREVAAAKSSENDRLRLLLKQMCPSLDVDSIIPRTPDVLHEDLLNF", "assay": "inhibition of BZLF1 ZTA DNA binding – biochemical, fluorescence polarization, Epstein-Barr virus, 1536-well, counter-screen for EBNA-1 inhibitor project, dose response (AID 2377);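 note: fluorescence polarization of Cy5-labelled ZRE DNA probe bound by purified Zta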", "parameters": "species or system human gammaherpesvirus 4"}, "[19]": {"assay": "HEK-293T cell viability reduction – luminescence, B-cell screen hits, cytotoxicity control for BCR NF-kB inhibitor project, dose response (AID 489021);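 note: cells exposed to compound for about 14 hours before viability readout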", "type": "functional, cell-based"}, "[20]": {"molecular_target": "Epstein-Barr nuclear antigen 1 (Epstein-Barr virus (strain B95-8) (HHV-4) (Human herpesvirus 4), UniProt P03211)", "sequence (P03211 whole entry)": "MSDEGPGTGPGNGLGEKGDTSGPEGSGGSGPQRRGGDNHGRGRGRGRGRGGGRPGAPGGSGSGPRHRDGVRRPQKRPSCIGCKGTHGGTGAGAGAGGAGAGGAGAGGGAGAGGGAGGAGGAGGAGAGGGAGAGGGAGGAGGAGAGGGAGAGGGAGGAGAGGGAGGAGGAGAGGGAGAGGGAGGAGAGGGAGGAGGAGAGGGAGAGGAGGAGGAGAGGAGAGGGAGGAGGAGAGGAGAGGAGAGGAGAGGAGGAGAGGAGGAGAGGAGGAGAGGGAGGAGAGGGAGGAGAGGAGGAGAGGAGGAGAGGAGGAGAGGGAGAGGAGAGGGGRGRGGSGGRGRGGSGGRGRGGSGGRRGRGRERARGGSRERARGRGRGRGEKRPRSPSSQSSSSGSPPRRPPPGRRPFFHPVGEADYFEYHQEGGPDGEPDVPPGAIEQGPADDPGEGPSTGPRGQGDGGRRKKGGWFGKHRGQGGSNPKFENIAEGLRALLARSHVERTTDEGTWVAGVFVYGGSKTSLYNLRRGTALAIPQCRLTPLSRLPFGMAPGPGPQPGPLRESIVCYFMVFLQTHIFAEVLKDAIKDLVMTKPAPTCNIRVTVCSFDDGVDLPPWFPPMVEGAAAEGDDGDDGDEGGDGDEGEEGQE", "assay": "inhibition of EBV nuclear antigen 1 DNA binding – biochemical, fluorescence polarization, 1536-well, dose response (AID 2381);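 note: fluorescence polarization of a Cy5 DNA probe bound by EBNA-1 protein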", "parameters": "species or system human gammaherpesvirus 4"}, "[21]": {"molecular_target": "G2/mitotic-specific cyclin-B1 (Homo sapiens, UniProt P14635)", "sequence (P14635 whole entry)": "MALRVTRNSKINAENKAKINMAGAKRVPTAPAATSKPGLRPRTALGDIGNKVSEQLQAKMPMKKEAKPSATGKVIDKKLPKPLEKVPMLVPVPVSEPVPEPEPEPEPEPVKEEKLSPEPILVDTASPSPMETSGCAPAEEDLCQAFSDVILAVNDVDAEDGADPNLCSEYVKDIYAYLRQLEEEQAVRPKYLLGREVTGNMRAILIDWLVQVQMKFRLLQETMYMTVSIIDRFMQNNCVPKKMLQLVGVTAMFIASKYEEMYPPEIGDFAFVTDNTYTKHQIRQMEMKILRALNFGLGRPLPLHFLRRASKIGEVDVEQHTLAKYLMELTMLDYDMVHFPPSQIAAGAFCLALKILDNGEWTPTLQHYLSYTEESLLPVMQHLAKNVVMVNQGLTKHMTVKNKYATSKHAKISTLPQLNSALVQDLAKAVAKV", "assay": "Counterscreen assay for inhibitors of Wee1 degradation: dose response cell-based assay to identify inhibitors of cyclin B degradation. [Related pubchem assays: 1410, 1321 ]", "type": "functional"}, "Wee1-like protein kinase": {"molecular_target": "Wee1-like protein kinase (Homo sapiens, UniProt P30291)", "sequence (P30291 whole entry)": "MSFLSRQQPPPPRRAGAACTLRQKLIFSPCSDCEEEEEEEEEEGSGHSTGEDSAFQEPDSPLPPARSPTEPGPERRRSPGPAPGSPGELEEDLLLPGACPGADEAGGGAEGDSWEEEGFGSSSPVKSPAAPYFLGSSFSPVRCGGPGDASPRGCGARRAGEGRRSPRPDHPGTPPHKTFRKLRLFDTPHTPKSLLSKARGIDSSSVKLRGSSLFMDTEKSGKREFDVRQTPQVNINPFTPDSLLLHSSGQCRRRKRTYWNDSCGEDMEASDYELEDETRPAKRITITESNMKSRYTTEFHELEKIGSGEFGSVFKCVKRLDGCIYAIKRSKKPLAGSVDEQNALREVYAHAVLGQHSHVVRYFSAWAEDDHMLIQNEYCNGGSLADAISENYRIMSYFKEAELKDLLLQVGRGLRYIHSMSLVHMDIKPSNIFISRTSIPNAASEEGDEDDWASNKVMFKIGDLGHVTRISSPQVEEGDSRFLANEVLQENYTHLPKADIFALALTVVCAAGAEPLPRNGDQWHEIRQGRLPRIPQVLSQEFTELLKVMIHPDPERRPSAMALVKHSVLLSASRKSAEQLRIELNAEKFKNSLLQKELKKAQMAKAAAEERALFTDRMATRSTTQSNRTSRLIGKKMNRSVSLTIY", "assay": "Dose Response Cell-based Assay for Inhibitors of Wee1 Degradation. [Related pubchem assays: 1410, 1321 ]", "type": "functional"}, "NADPH oxidase 1": {"molecular_target": "NADPH oxidase 1 (Homo sapiens, UniProt Q9Y5S8)", "sequence (Q9Y5S8 whole entry)": "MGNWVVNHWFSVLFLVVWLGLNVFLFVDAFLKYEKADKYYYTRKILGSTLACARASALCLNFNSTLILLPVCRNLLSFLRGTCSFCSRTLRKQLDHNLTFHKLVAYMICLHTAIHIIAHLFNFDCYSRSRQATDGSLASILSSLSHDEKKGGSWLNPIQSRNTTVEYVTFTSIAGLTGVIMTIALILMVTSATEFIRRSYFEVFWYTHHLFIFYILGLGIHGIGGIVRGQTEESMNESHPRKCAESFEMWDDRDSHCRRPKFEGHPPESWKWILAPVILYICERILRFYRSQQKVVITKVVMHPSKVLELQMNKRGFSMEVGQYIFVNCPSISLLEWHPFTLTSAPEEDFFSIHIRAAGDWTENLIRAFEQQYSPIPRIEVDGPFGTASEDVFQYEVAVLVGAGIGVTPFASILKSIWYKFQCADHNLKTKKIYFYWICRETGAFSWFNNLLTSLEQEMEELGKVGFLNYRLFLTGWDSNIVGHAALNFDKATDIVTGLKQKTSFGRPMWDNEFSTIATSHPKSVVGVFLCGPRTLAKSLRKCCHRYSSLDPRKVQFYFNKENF", "type": "functional, cell-based"}, "NS3": {"molecular_target": "NS3 (Hepatitis C virus, UniProt A3EZJ3)", "sequence (A3EZJ3 whole entry)": "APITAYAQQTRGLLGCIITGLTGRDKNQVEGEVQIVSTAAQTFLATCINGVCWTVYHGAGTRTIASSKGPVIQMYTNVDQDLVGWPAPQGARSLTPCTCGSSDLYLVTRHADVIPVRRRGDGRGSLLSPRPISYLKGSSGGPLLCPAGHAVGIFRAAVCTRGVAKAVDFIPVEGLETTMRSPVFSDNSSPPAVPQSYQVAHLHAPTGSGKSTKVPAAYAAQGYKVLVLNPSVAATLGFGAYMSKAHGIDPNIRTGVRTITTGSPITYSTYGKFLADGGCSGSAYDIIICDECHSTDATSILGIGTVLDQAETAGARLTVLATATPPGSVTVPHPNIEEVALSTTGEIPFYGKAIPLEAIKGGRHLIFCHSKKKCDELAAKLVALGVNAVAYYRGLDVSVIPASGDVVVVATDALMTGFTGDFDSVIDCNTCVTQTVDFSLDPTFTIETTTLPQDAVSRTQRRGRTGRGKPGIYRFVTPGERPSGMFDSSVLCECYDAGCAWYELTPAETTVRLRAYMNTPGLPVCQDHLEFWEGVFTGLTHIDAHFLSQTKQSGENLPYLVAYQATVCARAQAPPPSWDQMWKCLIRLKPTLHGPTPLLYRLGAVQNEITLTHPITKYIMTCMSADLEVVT", "assay": "PubChem AID 2173", "parameters": "species or system Hepacivirus hominis"}}, "note": "Calls of active or inactive are those of the source."}
{"smiles": "O=C(Nc1nnc(SCc2ccc(Cl)cc2Cl)s1)C1COc2ccccc2O1", "note": "(stereo not given)", "values": [{"measurement": "IC50", "setting": "[1]", "result": "49 µM (active)"}]}
{"smiles": "N#Cc1ccc(NC(=O)c2nc(-c3ccccc3)n(-c3ccccc3)n2)cc1", "values": [{"measurement": "CC50", "setting": "HeLa", "result": "> 99 µM (not active)"}]}
{"smiles": "O=C(Cn1ncc(Cl)c(Cl)c1=O)N1CCN(Cc2ccccc2)CC1", "values": [{"measurement": "AC50", "setting": "[2]", "result": "10.9 µM (active)"}, {"measurement": "IC50", "setting": "[3]", "result": "2.16 µM (active)"}, {"measurement": "CC50", "setting": "Vero [4]", "result": "11.3 µM (active)"}, {"measurement": "AC50", "setting": "[5]", "result": "7.54 µM (active)"}, {"measurement": "EC50", "setting": "[6]", "result": "2.22 µM (active)"}, {"measurement": "EC50", "setting": "[7]", "result": "2.06 µM (active)"}, {"measurement": "IC50", "setting": "Vero [8]", "result": "> 25 µM (active)"}, {"measurement": "AC50", "setting": "[9]", "result": "17.8 µM (active)"}, {"measurement": "AC50", "setting": "[10]", "result": "31.5 µM (active)"}, {"measurement": "IC50", "setting": "[11]", "result": "3.5 µM (active)"}, {"measurement": "AC50", "setting": "[12]", "result": "34.1 µM (active)"}, {"measurement": "IC50", "setting": "[13]", "result": "9.93 µM (active)"}, {"measurement": "AC50", "setting": "[14]", "result": "11.1 µM (active)"}, {"measurement": "IC50", "setting": "[15]", "result": "3.08 µM (active)"}]}
{"smiles": "Cc1cccc(CSc2nc3c(cc2C#N)CCC3)c1", "values": [{"measurement": "IC50", "setting": "[16]", "result": "18.5 µM (active)"}]}
{"smiles": "CCOC(=O)c1cc(C)n(Cc2ccccc2)c1C", "values": [{"measurement": "EC50", "setting": "[17]", "result": "> 30 µM (not active)"}]}
{"smiles": "COc1ccc(C(=O)Nc2nnc(Cc3cccs3)s2)cc1OC", "values": [{"measurement": "IC50", "setting": "[18]", "result": "> 111 µM (not active)"}, {"measurement": "IC50", "setting": "[19]", "result": "> 80 µM (inactive)"}, {"measurement": "IC50", "setting": "[20]", "result": "41.5 µM (not active)"}]}
{"smiles": "CCN(CC)c1ccc(/C=N/NC(=O)c2cnccn2)cc1", "values": [{"measurement": "EC50", "setting": "[21]", "result": "> 49.7 µM (not active)"}, {"measurement": "EC50", "setting": "Wee1-like protein kinase", "result": "> 49.7 µM (not active)"}]}
{"smiles": "COc1ccc(-c2nc(-c3ccccc3)c(-c3ccccc3)[nH]2)cc1OC", "values": [{"measurement": "IC50", "setting": "NADPH oxidase 1", "result": "> 17 µM (not active)"}]}
{"smiles": "COc1ccc(C2C(C(=O)c3ccc4c(c3)OCCO4)=C(O)C(=O)N2c2nc(C)c(C(C)=O)s2)cc1", "note": "(stereo not given)", "values": [{"measurement": "IC50", "setting": "NS3", "result": "5.13 µM (active)"}]}
